Measured values taken from patent US10123998B2, “Kinase modulation, and indications therefor” (Plexxikon Inc., priority 2012, dated 2018).

Key:
[1] = test system: Osteoclast precursor cells; test: Osteoclast differentiation assay; format: cell-based
Method: Further, an osteoclast differentiation assay is used to assess the efficacy of Fms inhibitors for treating bone disease such as osteoarthritis. On day 0, Osteoclast Medium BulletKit (Lonza catalog # PT-8001, containing Media, FBS, L-Glutamine, PenStrep, RANKL, and M-CSF) media is thawed and the FBS, L-glutamine and PenStrep from the kit is added to 100 mL of Osteoclast Precursor Basal medium to provide the Osteoclast Precursor Growth Medium (OPGM). This is warmed to 37° C. Osteoclast precursor cells (Lonza catalog #2T-110) frozen in cryovial are warmed to 37° C. and transferred to a 50 mL conical tube. The cryovial is rinsed with OPGM and added dropwise to the conical tube of cells with swirling, then the volume is adjusted to 20-30 mL with addition of OPGM. The cells are centrifuged at 200×g for 15 minutes at room temperature and all but approximately 3 mL of supernatant is removed to a new conical tube. The cells are suspended in the remaining supernatant and the volume is adjusted to 10-15 mL with OPGM added dropwise with swirling. The cells are centrifuged at 200×g for 15 minutes at room temperature and all but approximately 1 mL of supernatant is removed. The cells are resuspended in the remaining supernatant, counted, and the volume adjusted with an appropriate amount of OPGM to provide approximately 1×10^5 cells/mL. A 0.1 mL aliquot of cells is added to each well of a 96-well plate. Compound to be tested is prepared in DMSO for plating at a high concentration of 2.5 mM, with 8 point 1:3 serial dilutions. A 1 μL aliquot of each compound dilution is added to a 96 well v-bottom polypropylene plate and 0.124 mL of OPGM is added to the compound. Then 50 μL of the compound in OPGM is added to the osteoclast precursor cells in 96-well plate (providing highest test concentration of 5 μM). RANKL (2 μg) from the BulletKit is reconstituted in 1 mL of OPGM, then vortexed and centrifuged briefly. A 792 μL aliquot of RANKL is added to 6 mL of OPGM and 50 μL is added to low control wells. Then 76.6 μL M-CSF ([…]) from the BulletKit is added to the remaining 5.8 mL of OPGM/RANKL solution (4×RANKL/M-CSF/OPGM). A 50 μL aliquot of this is added to the remaining wells, and the remainder is stored at 4° C. for later use. The plate is incubated at 37° C. for 6 days, then the remaining OPGM/RANKL/M-CSF solution is warmed to 37° C. The remaining approximately 198 μL is combined with 6 mL of OPGM. The media is aspirated from the osteoclast wells and 100 μL of RANKL/OPGM is added to the low controls. The remaining RANKL/OPGM is combined with the approximately 18.5 μL of remaining M-CSF. The remaining 4×RANKL/M-CSF/OPGM from day 0 is diluted to 1× and combined with the freshly prepared solution. A 0.1 mL aliquot of this is added to each osteoclast well and incubated for 37° C. for 1 day. The Acid Phosphatase kit (Cayman Chemical catalog #10008051) is warmed to room temperature. The assay buffer is diluted 5 mL with 45 mL of water. For each plate, two substrate tablets are dissolved in 4.5 mL of the assay buffer, mixing by vortex to break up the tablet. Stop solution is diluted 12 mL with 36 mL of water. In a tissue culture hood, 20 μL of each osteoclast well supernatant is transferred to a 96 well plate. A 30 μL aliquot of the substrate solution is added to each well and incubated at 37° C. for 20 minutes, then added […] stop solution to each well. The absorbance of each well is read at 405 nm on Safire plate reader. The absorbance reading is plotted vs. concentration to provide the IC50 for each compound.

[2] = test system: PLP139-151-induced relapsing-remitting EAE; test: PLP139-151-induced relapsing-remitting EAE; set-up: species or system SJL mice; conditions: mouse, in vivo
Method: Method: CSF-1R inhibitors as described herein were tested in mouse relapsing-remitting multiple sclerosis (MS) model. […] Female […] mice 6 weeks old were purchased from Harlan and maintained for 1 week prior to beginning the experiment. Mice were randomly assigned into groups of 10 animals (plus the additional mice per group to be used for histology), and primed with 50 μg PLP139-151/CFA on Day 0. On Day 16-20 post disease induction (onset of remission), the experimental compounds in dose groups 2 and 3 were administered daily via gavage to the groups for a period of 3 weeks (with the final treatment on ˜Day 37-41 post disease induction). On Day 10 post disease induction (disease onset) treatment of group 4 began, and continued to the same day as groups 2 and 3 (˜Day 37-41 post disease induction). After administration of the test compounds, the mice were followed until Day 45 to assess clinical disease, delayed type hypersensitivity (DTH), and various in vitro immunological assays. Histological signs of disease at various time points during the disease course were also assessed. […]

| SMILES | IC50 [1] | clinical scores after discontinuation of therapy [2] |
| --- | --- | --- |
| COc1ncc(F)cc1CNc1ccc(Cc2c[nH]c3ncc(C#N)cc23)c(F)n1 [Compound P-2193, 3-{2-Fluoro-6-[(5-fluoro-2-methoxy-pyridin-3-ylmethyl)-amino]-pyridin-3-ylmethyl}-1H-pyrrolo[2,3-b]pyridine-5-carbonitrile] | < 100 nM |  |
| CCCCCCCCc1ccc(CCC(N)(CO)CO)cc1 [FTY-720] |  | rapid rebound of clinical scores |
